Target: T1, human cGAS (residues 161-522) (Homo sapiens, UniProt Q8N884)
T1 construct: human cGAS (residues 161-522); made in house
Test: cGAS Activity Assay—Malachite Green
Type: biochemical
Details: recombinant purified human cGAS 25 nM; 80 μM ATP, 80 μM GTP, 100 nM ISD; 4 hour at RT; phosphate detection by Malachite Green
Experimental: Compounds were tested for cGAS inhibition in a coupled enzymatic assay based on Phosphate detection by Malachite Green. Final assay conditions were 20 mM TRIS pH 7.5 (Applichem), 5 mM MgCl2 (Sigma) and 0.01% BSA (Sigma) supplemented with 80 μM ATP (Sigma), 80 μM GTP (Sigma) and 100 nM Interferon Stimulating DNA (ISD) (Microsynth). Recombinantly expressed purified human cGAS (residues 161-522) was used at 25 nM.
All compounds were prepared as 10 mM stock solutions in DMSO and a 16 pt dilution series in DMSO with a dilution factor of 2.5 was prepared. 1 μL of DMSO dilution series was transferred to 32.3 μL reaction buffer, mixed by pipetting up/down, spun for 1 minute at 3000 rpm and was visually inspected for precipitation. 5 μL of 3-fold enzyme stock solution were transferred to an empty 384-well Black/Clear Flat Bottom Polystyrene NBS (Corning) rows 3-24. Rows 1-2 were filled with assay buffer. Plates were spun 10 seconds at 1000 rpm (164×g). 5 μL of compound intermediate dilution was added and mixed by pipetting up/down to rows 3-24. Rows 1-2 were filled with 3.1% DMSO assay buffer. Plates were spun 10 seconds at 1000 rpm (164×g). 5 μL 3-fold Nucleotide/DNA mix was added to all wells to start the reaction. Plates were spun 10 seconds at 1000 rpm (164×g) and incubated for 4 hour at room temperature (RT) in the dark. 5 μL 4 U/ml PPase (Sigma) were added to all wells. Plates spun 10 seconds at 1000 rpm (164×g). 10 μL BioMol green Solution (Enzo Life Sciences) was added to all wells. Plates spun 10 seconds at 1000 rpm (164×g) and incubated 30 minutes at RT in the dark. Absorbance data was collected 620 nm on an EnVision Multilable Reader (Perkin Elmer) and the following measurement settings were used: excitation filter photometric was 620 nm; excitation from the top; measurement height was 1 mm; number of flashes was 30; number of flashes integrated was 1.
All plates are checked for abnormalities and outliers in the Blank Control (no protein, row 1) and the Neutral Control (no compound, row 2) are excluded using the 3*SD rule. Data was normalized to 0 and 100% by Blank and Neutral Control and each curve was fitted and judged using the 4 parameter logistic equation to determine the IC50 for cGAS inhibition.
Table 13 provides IC50 values (μM) for cGAS inhibition obtained for particular examples of the present invention as measured by the above-described assay.

T1 sequence (Q8N884 161-522): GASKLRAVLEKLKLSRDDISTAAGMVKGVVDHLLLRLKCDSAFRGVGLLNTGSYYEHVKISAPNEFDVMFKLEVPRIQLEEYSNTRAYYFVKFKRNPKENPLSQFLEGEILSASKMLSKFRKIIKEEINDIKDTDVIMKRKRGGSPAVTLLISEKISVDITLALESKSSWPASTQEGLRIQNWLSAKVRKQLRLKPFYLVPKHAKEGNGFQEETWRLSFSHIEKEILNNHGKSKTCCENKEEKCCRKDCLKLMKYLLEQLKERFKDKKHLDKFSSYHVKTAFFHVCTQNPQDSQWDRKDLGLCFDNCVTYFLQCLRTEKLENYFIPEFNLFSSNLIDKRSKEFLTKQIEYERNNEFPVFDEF

SMILES	IC50 [nM]
Cc1oncc1/C(O)=C(\C#N)C(=O)Nc1ccccc1 [Example 3, (Z)-2-cyano-3-hydroxy-3-(5-methylisoxazol-4-yl)-N-phenylacrylamide]	1070
Cc1oncc1/C(O)=C(\C#N)C(=O)Nc1ccc(C(F)(F)F)cc1 [Example 4, (Z)-2-cyano-3-hydroxy-3-(5-methylisoxazol-4-yl)-N-(4-(trifluoromethyl)phenyl) acrylamide]	950
Cc1oncc1/C(O)=C(\C#N)C(=O)Nc1cccc(C(F)(F)F)c1 [Example 5, (Z)-2-cyano-3-hydroxy-3-(5-methylisoxazol-4-yl)-N-[3-(trifluoromethyl)phenyl] prop-2-enamide]	1500
Cc1oncc1/C(O)=C(\C#N)C(=O)Nc1cc(C(F)(F)F)cc(C(F)(F)F)c1 [Example 6, (Z)-N-(3,5-bis(trifluoromethyl)phenyl)-2-cyano-3-hydroxy-3-(5-methylisoxazol-4-yl)acrylamide]	6980
Cc1oncc1/C(O)=C(\C#N)C(=O)Nc1ccccc1C(F)(F)F [Example 9, (Z)-2-cyano-3-hydroxy-3-(5-methylisoxazol-4-yl)-N-(2-(trifluoromethyl)phenyl) acrylamide]	7240
Cc1oncc1/C(O)=C(\C#N)C(=O)Nc1ccc(OC(F)(F)F)cc1 [Example 11, (Z)-2-cyano-3-hydroxy-3-(5-methylisoxazol-4-yl)-N-(4-(trifluoromethoxy)phenyl) acrylamide]	1290
Cc1oncc1/C(O)=C(\C#N)C(=O)Nc1ccc(Cl)c(Cl)c1 [Example 12, (Z)-2-cyano-N-(3,4-dichlorophenyl)-3-hydroxy-3-(5-methylisoxazol-4-yl)acrylamide]	2600
Cc1oncc1/C(O)=C(\C#N)C(=O)Nc1ccc(Sc2ccc(Cl)cc2)cc1 [Example 13, (Z)-N-(4-((4-chlorophenyl)thio)phenyl)-2-cyano-3-hydroxy-3-(5-methylisoxazol-4-yl)acrylamide]	3470
Cc1oncc1/C(O)=C(\C#N)C(=O)Nc1ccc(Cl)c(C(F)(F)F)c1 [Example 15, (Z)-N-(4-chloro-3-(trifluoromethyl)phenyl)-2-cyano-3-hydroxy-3-(5-methylisoxazol-4-yl)acrylamide]	3560
Cc1oncc1/C(O)=C(\C#N)C(=O)Nc1ccc(S(=O)(=O)c2ccc(Cl)cc2)cc1 [Example 16, (Z)-N-(4-((4-chlorophenyl)sulfonyl)phenyl)-2-cyano-3-hydroxy-3-(5-methylisoxazol-4-yl)acrylamide]	270
Cc1oncc1/C(O)=C(\C#N)C(=O)Nc1ccc(Oc2cccc(C(F)(F)F)c2)cc1 [Example 18, (Z)-2-cyano-3-hydroxy-3-(5-methylisoxazol-4-yl)-N-(4-(3-(trifluoromethyl)phenoxy)phenyl)acrylamide]	3710
Cc1cc(NC(=O)/C(C#N)=C(\O)c2cnoc2C)ccc1Oc1ccc(C(F)(F)F)cc1 [Example 19, (Z)-2-cyano-3-hydroxy-N-(3-methyl-4-(4-(trifluoromethyl)phenoxy)phenyl)-3-(5-methylisoxazol-4-yl)acrylamide]	7420
Cc1oncc1/C(O)=C(\C#N)C(=O)Nc1ccc(-n2cccc2)cc1 [Example 21, (Z)-N-(4-(1H-pyrrol-1-yl)phenyl)-2-cyano-3-hydroxy-3-(5-methylisoxazol-4-yl)acrylamide]	1440
Cc1cc(C#N)ccc1NC(=O)/C(C#N)=C(\O)c1cnoc1C [Example 22, (Z)-2-cyano-N-(4-cyano-2-methylphenyl)-3-hydroxy-3-(5-methylisoxazol-4-yl)acrylamide]	690
Cc1cc(NC(=O)/C(C#N)=C(\O)c2cnoc2C)ccc1Br [Example 23, (Z)-N-(4-bromo-3-methylphenyl)-2-cyano-3-hydroxy-3-(5-methylisoxazol-4-yl)acrylamide]	1810
Cc1oncc1/C(O)=C(\C#N)C(=O)Nc1ccc(Oc2ccc(Cl)cc2)c(Cl)c1 [Example 24, (Z)-N-(3-chloro-4-(4-chlorophenoxy)phenyl)-2-cyano-2-hydroxy-3-(5-methylisoxazol-4-yl)acrylamide]	4370
Cc1oncc1/C(O)=C(\C#N)C(=O)Nc1cccc(S(C)(=O)=O)c1 [Example 26, (Z)-2-cyano-3-hydroxy-3-(5-methylisoxazol-4-yl)-N-(3-(methylsulfonyl)phenyl) acrylamide]	1510
Cc1oncc1/C(O)=C(\C#N)C(=O)Nc1ccc(S(=O)(=O)N2CCCC2)cc1 [Example 27, (Z)-2-cyano-3-hydroxy-3-(5-methylisoxazol-4-yl)-N-(4-(pyrrolidin-1-ylsulfonyl)phenyl) acrylamide]	150
Cc1oncc1/C(O)=C(\C#N)C(=O)Nc1ccc(S(=O)(=O)c2ccccc2)cc1 [Example 30, (Z)-2-cyano-3-hydroxy-3-(5-methylisoxazol-4-yl)-N-(4-(phenylsulfonyl)phenyl) acrylamide]	160
COc1ccc(NC(=O)/C(C#N)=C(\O)c2cnoc2C)cc1C [Example 31, (Z)-2-cyano-3-hydroxy-N-(4-methoxy-3-methyl-phenyl)-3-(5-methylisoxazol-4-yl)prop-2-enamide]	1300
Cc1oncc1/C(O)=C(\C#N)C(=O)Nc1cccc(C#N)c1 [Example 33, (Z)-2-cyano-N-(3-cyanophenyl)-3-hydroxy-3-(5-methylisoxazol-4-yl)prop-2-enamide]	310
Cc1oncc1/C(O)=C(\C#N)C(=O)Nc1ccc([S+]([O-])c2ccccc2)cc1 (stereo not shown) [Example 34, (Z)-2-cyano-3-hydroxy-3-(5-methylisoxazol-4-yl)-N-(4-(phenylsulfinyl)phenyl) acrylamide]	190

Results, then the molecule that gave them:

IC50 [nM]	SMILES
170	Cc1oncc1/C(O)=C(\C#N)C(=O)Nc1ccc(S(=O)(=O)N(C)C)cc1 [Example 1, (Z)-2-cyano-N-(4-(N,N-dimethylsulfamoyl)phenyl)-3-hydroxy-3-(5-methylisoxazol-4-yl)acrylamide]
510	CC(=O)c1ccc(NC(=O)/C(C#N)=C(\O)c2cnoc2C)cc1 [Example 2, (Z)-N-(4-acetylphenyl)-2-cyano-3-hydroxy-3-(5-methylisoxazol-4-yl)prop-2-enamide]
790	Cc1oncc1/C(O)=C(\C#N)C(=O)Nc1ccc(C#N)cc1 [Example 7, (Z)-2-cyano-N-(4-cyanophenyl)-3-hydroxy-3-(5-methylisoxazol-4-yl)acrylamide]
340	COC(=O)c1ccc(NC(=O)/C(C#N)=C(\O)c2cnoc2C)cc1 [Example 8, methyl (Z)-4-(2-cyano-3-hydroxy-3-(5-methylisoxazol-4-yl)acrylamido)benzoate]
1480	Cc1oncc1/C(O)=C(\C#N)C(=O)Nc1ccc(F)cc1 [Example 10, (Z)-2-cyano-N-(4-fluorophenyl)-3-hydroxy-3-(5-methylisoxazol-4-yl)acrylamide]
670	CSc1ccc(NC(=O)/C(C#N)=C(\O)c2cnoc2C)cc1 [Example 14, (Z)-2-cyano-3-hydroxy-3-(5-methylisoxazol-4-yl)-N-(4-(methylthio)phenyl) acrylamide]
640	COc1ccc(NC(=O)/C(C#N)=C(\O)c2cnoc2C)cc1 [Example 17, (Z)-2-cyano-3-hydroxy-N-(4-methoxyphenyl)-3-(5-methylisoxazol-4-yl)acrylamide]
1120	Cc1oncc1/C(O)=C(\C#N)C(=O)Nc1ccc(Cl)cc1 [Example 20, (Z)-N-(4-chlorophenyl)-2-cyano-3-hydroxy-3-(5-methylisoxazol-4-yl)acrylamide]
1520	COC(=O)c1cccc(NC(=O)/C(C#N)=C(\O)c2cnoc2C)c1 [Example 25, methyl 3-[[(Z)-2-cyano-3-hydroxy-3-(5-methylisoxazol-4-yl)prop-2-enoyl]amino]benzoate]
750	CCOc1ccc(NC(=O)/C(C#N)=C(\O)c2cnoc2C)cc1 [Example 28, (Z)-2-cyano-N-(4-ethoxyphenyl)-3-hydroxy-3-(5-methylisoxazol-4-yl)prop-2-enamide]
70	COCCNS(=O)(=O)c1ccc(NC(=O)/C(C#N)=C(\O)c2cnoc2C)cc1 [Example 29, (Z)-2-cyano-3-hydroxy-N-(4-(N-(2-methoxyethyl)sulfamoyl)phenyl)-3-(5-methylisoxazol-4-yl)acrylamide]
530	COC(=O)Cc1ccc(NC(=O)/C(C#N)=C(\O)c2cnoc2C)cc1 [Example 32, methyl 2-[4-[[(Z)-2-cyano-3-hydroxy-3-(5-methylisoxazol-4-yl)prop-2-enoyl]amino]phenyl] acetate]
